The results in this text go back to US8779158B2, “Trisubstituted pyrazoles as acetylcholine receptor modulators” (Janssen Pharmaceutica NV, priority 2008, dated 2014).

The structures appear in SMILES notation.

Data set [1] concerns the target T1, hα7-wt nAChR-expressing GH4C1 cells (Homo sapiens, UniProt P36544).
T1 construct: expressed in transfected cells
Nature of the data set: Patch-clamp current recording (whole-cell voltage clamp), potentiation of the choline current and PAM type. The data set is classed as cell-based. The arrangement: key: Type 0 compounds minimally enhance the effect size of the current elicited by 1 mM choline.; Type 1 compounds enhance the effect size of the current elicited by 1 mM choline but minimally alter the kinetics of the receptor.; Type 2 compounds enhance the effect size of the current elicited by 1 mM choline while reducing the rate and/or the extent of desensitization.; Type 3 compounds enhance the effect size of the current elicited by 1 mM choline. When tested at higher concentrations up to 10 μM they completely inhibit desensitization, in particular a 1 mM choline application of 250 milliseconds.; Type 4 compounds allow for an initial desensitization of the receptor followed by a re-opening of the receptor during agonist application. The conditions noted are these: 1 mM choline. In a few lines:
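Whole-cell voltage clamp at −70 mV of GH4C1 cells stably expressing human wild-type α7, with compound co-applied with 1 mM choline via rapid (<100 ms) application; external solution pH 7.3 with 1 mM Ca, CsCl-based internal. Peak-current potentiation relative to choline alone (=100%); compounds reaching ≥200% assigned PAM type 0-4 from desensitization kinetics.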
On the technique in general: In patch-clamp work, channel activity is measured electrically.

For the next data set, the target named is T2, hα7-wt nAChR (Homo sapiens, UniProt P36544).
T2 construct: expressed in transfected cells
T2 sequence (P36544 23-502): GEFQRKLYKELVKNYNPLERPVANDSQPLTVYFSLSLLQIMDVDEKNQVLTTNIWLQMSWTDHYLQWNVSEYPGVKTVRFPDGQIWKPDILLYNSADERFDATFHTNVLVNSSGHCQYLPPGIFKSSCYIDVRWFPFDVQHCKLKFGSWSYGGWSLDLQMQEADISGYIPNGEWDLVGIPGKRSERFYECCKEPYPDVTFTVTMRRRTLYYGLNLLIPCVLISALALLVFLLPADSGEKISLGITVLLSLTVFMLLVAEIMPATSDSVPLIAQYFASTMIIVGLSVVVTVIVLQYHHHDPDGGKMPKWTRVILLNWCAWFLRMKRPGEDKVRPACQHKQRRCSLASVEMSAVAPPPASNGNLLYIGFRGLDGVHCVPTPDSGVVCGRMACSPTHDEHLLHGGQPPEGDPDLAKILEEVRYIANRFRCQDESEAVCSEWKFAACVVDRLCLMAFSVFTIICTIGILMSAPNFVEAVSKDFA
Nature of the data set: Ca2+ flux imaging (FDSS) (Protocol B), potentiation of the choline response. The data set is classed as cell-based. The conditions noted are these: Ca2+ assay as described in D.1; for EC50: "<5" = activity did not reach a top plateau at maximal concentration; for Emax: read-out: % Efficacy. In a few lines:
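Cells expressing hα7-wt nAChR, loaded with fluo-4AM (2 μM final) in HBSS with 10 mM HEPES, 5 mM CaCl2, 0.1% BSA and probenecid; compound (0.01–30 μM) added up to 10 min before 100 μM choline. Peak fluorescence potentiation relative to choline alone (100%); EC50 from sigmoidal curve.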

T1 sequence (P36544 23-502): as above

In the case of `CNC(=O)Cn1nc(Nc2ccc(F)cc2)cc1-c1ccc2c(c1)OCCO2` [compound 73], the melting point (commonly the temperature of the solid-liquid transition) fell in the range of 169.9 to 177.3 °C. Further, the PAM type in data set [1] is on record as 3. Besides, the EC50 (in general, the concentration needed to bring the measured effect to its halfway point) on hα7-wt nAChR is 437 nM.
As for `CNC(=O)Cn1nc(Nc2ccc3c(c2)OC(F)(F)O3)cc1-c1ccc2c(c1)OCCO2` [compound 97], the melting point was in the range of 171.5 to 171.8 °C. Further, the EC50 at hα7-wt nAChR was 1120 nM.
In turn, `CNC(=O)Cn1nc(Nc2ccc(F)c(F)c2)cc1-c1ccc2c(c1)OCCO2` [compound 7, 3-[(3,4-difluorophenyl)amino]-5-(2,3-dihydro-1,4-benzodioxin-6-yl)-N-methyl-1H-pyrazole-1-acetamide] gave a melting point of 189.5 to 194.5 °C. Also, the PAM type in data set [1] came to 2. Also, on hα7-wt nAChR, the EC50 was 195 nM.
Consider `Cc1cc(-c2cc(Nc3ccc4c(c3)OC(F)(F)O4)nn2CC(=O)NC2CC2)cc(C)n1` [compound 145], for which the PAM type in data set [1] is given as 2. Also, at hα7-wt nAChR, the EC50 was 479 nM and the Emax came out at 736%.
Take `Cc1cc(-c2cc(Nc3cccc(Cl)c3F)nn2CC(=O)NCC2CC2)ccn1` [compound 170]: in data set [1], the PAM type is reported as 2. Further, on hα7-wt nAChR, the EC50 was 186 nM and the Emax worked out at 783%.
For `CCNC(=O)Cn1nc(Nc2ccc3c(c2)OC(F)(F)O3)cc1-c1ccncc1` [compound 87], the PAM type in data set [1] turned out to be 3. Further, the EC50 on hα7-wt nAChR was 871 nM.
For the molecule `CCNc1cc(-c2cc(Nc3ccc(F)c(F)c3)nn2C[C@@H](O)CC)ccn1` [compound 65], the PAM type in data set [1] came out at 2. Further, on hα7-wt nAChR, the EC50 was 575 nM and the Emax was 1000%.
As for `Cc1cc(-c2cc(Nc3cc(F)c(F)c(F)c3)nn2CC(=O)NCC2CC2)ccn1` [compound 168], in data set [1], the PAM type amounted to 2. Also, on hα7-wt nAChR, the half-maximal effective concentration (EC50) is 263 nM and the Emax came to 778%.
Consider `CCNC(=O)Cn1nc(Nc2ccc3c(c2)OC(F)(F)O3)cc1-c1ccnc(C)c1` [compound 93], for which the PAM type in data set [1] is on record as 2. Moreover, the half-maximal effective concentration (EC50) at hα7-wt nAChR was 1000 nM.
On to `CNC(=O)Cn1nc(Nc2cccc(F)c2)cc1-c1ccc2c(c1)OCCO2` [compound 72], for which the melting point lay within 189.5 to 194 °C. Moreover, the PAM type in data set [1] is 2. Moreover, the concentration for a half-maximal effect (EC50) at hα7-wt nAChR is 646 nM.
For the molecule `CCNC(=O)Cn1nc(Nc2ccc3c(c2)OC(F)(F)O3)cc1-c1ccncc1C` [compound 91], the PAM type in data set [1] worked out at 2. The EC50 at hα7-wt nAChR is 2630 nM.
With `Cc1cc(-c2cc(Nc3cccc(Cl)c3)nn2CC(=O)NCC2CC2)ccn1` [compound 163], the PAM type in data set [1] was 2. Also, the EC50 on hα7-wt nAChR is 324 nM.
The like results for `CNC(=O)Cn1nc(Nc2ccc(F)c(F)c2)cc1-c1cc(C)nc(C)c1` [compound 55] were, in that order, 2 and 1700 nM.
On to `Cc1cc(-c2cc(Nc3cccc(Cl)c3)nn2CC(=O)NCC2CC2)cc(C)n1` [compound 100], for which the PAM type in data set [1] is reported as 2. At hα7-wt nAChR, the EC50 was 339 nM.
In turn, `CN(C)C(=O)CCn1nc(Nc2ccc(F)cc2)cc1-c1ccc2c(c1)OCCO2` [compound 83] displayed a melting point of 141.6 to 143.2 °C. Further, on hα7-wt nAChR, the EC50 was 117 nM.
As to `Cc1cc(-c2cc(Nc3ccc(F)c(C(F)(F)F)c3)nn2C[C@H](C)O)ccn1` [compound 43], in data set [1], the PAM type amounted to 1. Further, at hα7-wt nAChR, the EC50 is 1450 nM and the Emax was found to be 700%.
As for `Cc1cc(-c2cc(Nc3ccc(F)c(F)c3)nn2CCC(=O)N(C)C)cc(C)n1` [compound 119], in data set [1], the PAM type is reported as 2. In addition, the EC50 on hα7-wt nAChR was 1100 nM.
With `CCNC(=O)Cn1nc(Nc2cccc(C(F)(F)F)c2)cc1-c1ccnc(C)c1` [compound 36], the PAM type in data set [1] is 2. Moreover, the EC50 on hα7-wt nAChR was 1910 nM.
For the molecule `Cc1ccnc(-c2cc(Nc3ccc(F)c(F)c3)nn2CCC(=O)N(C)C)c1` [compound 22], in data set [1], the PAM type is given as 2. The concentration for a half-maximal effect (EC50) on hα7-wt nAChR is 2450 nM.
The like results for `CCNc1cc(-c2cc(Nc3ccc(F)c(C(F)(F)F)c3)nn2C[C@@H](O)CC)cc(C)n1` [compound 68] were, in that order, 0 and 724 nM.
Turning to `COc1cc(Cl)cc(Nc2cc(-c3ccnc(C)c3)n(CC(=O)NC3CC3)n2)c1` [compound 110], the PAM type in data set [1] was found to be 2. Also, the EC50 on hα7-wt nAChR was 1780 nM.
The like results for `CCNC(=O)Cn1nc(Nc2cc(OC)cc(C(F)(F)F)c2)cc1-c1ccnc(C)c1C` [compound 51] were, in that order, 2 and 3310 nM.
For the molecule `CC[C@H](O)Cn1nc(Nc2ccc(F)c(F)c2)cc1-c1ccnc(C)c1` [compound 45], in data set [1], the PAM type was 1. For the same molecule, on hα7-wt nAChR, the EC50 was 1230 nM and the Emax was 800%.
